Reference: patent US20220046923A1, “HERBICIDAL CINNOLINIUM COMPOUNDS” (SYNGENTA CROP PROTECTION AG, priority 2018, published 2022)

How the values were obtained:
Assay in all cases: Post-emergence efficacy, glasshouse spray test
Type in all cases: in vivo
[1] = tested on: Echinochloa crus-galli (ECHCG); conditions: Echinochloa crus-galli, post-emergence, 312 h, evaluated after 13 days, read-out: Control of weed species ECHCG after post-emergence application (100=total damage to plant; 0=no damage to plant); for pest or weed control at 1000 g/ha: application rate 1000 g/Ha; for pest or weed control at 500 g/ha: application rate 500 g/Ha
Outline: (§1)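 Efficacy was rated 13 days post-treatment on a 0–100 damage scale. Treatment was a post-emergence spray on plants raised 14 days in soil at 24/16 °C, 14 h photoperiod and 65% humidity.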

Eleusine indica (ELEIN) = conditions: Eleusine indica, post-emergence, 312 h, evaluated after 13 days, read-out: Control of weed species ELEIN after post-emergence application (100=total damage to plant; 0=no damage to plant); for pest or weed control at 1000 g/ha: application rate 1000 g/Ha; for pest or weed control at 500 g/ha: application rate 500 g/Ha
Outline: as §1

[2] = tested on: Digitaria sanguinalis (DIGSA); conditions: Digitaria sanguinalis, post-emergence, 312 h, evaluated after 13 days, read-out: Control of weed species DIGSA after post-emergence application (100=total damage to plant; 0=no damage to plant); for pest or weed control at 1000 g/ha: application rate 1000 g/Ha; for pest or weed control at 500 g/ha: application rate 500 g/Ha
Outline: as §1

[3] = tested on: Ipomoea hederacea (IPOHE); conditions: Ipomoea hederacea, post-emergence, 312 h, evaluated after 13 days, read-out: Control of weed species IPOHE after post-emergence application (100=total damage to plant; 0=no damage to plant); for pest or weed control at 1000 g/ha: application rate 1000 g/Ha; for pest or weed control at 500 g/ha: application rate 500 g/Ha
Outline: as §1

[4] = tested on: Euphorbia heterophylla (EPHHL); conditions: Euphorbia heterophylla, post-emergence, 312 h, evaluated after 13 days, read-out: Control of weed species EPHHL after post-emergence application (100=total damage to plant; 0=no damage to plant); for pest or weed control at 1000 g/ha: application rate 1000 g/Ha; for pest or weed control at 500 g/ha: application rate 500 g/Ha
Outline: as §1

[5] = tested on: Chenopodium album (CHEAL); conditions: Chenopodium album, post-emergence, 312 h, evaluated after 13 days, read-out: Control of weed species CHEAL after post-emergence application (100=total damage to plant; 0=no damage to plant); for pest or weed control at 1000 g/ha: application rate 1000 g/Ha; for pest or weed control at 500 g/ha: application rate 500 g/Ha
Outline: as §1

Setaria faberi (SETFA) = conditions: Setaria faberi, post-emergence, 312 h, evaluated after 13 days, read-out: Control of weed species SETFA after post-emergence application (100=total damage to plant; 0=no damage to plant); for pest or weed control at 1000 g/ha: application rate 1000 g/Ha; for pest or weed control at 500 g/ha: application rate 500 g/Ha
Outline: as §1

[6] = tested on: Amaranthus palmeri (AMAPA); conditions: Amaranthus palmeri, post-emergence, 312 h, evaluated after 13 days, read-out: Control of weed species AMAPA after post-emergence application (100=total damage to plant; 0=no damage to plant); for pest or weed control at 1000 g/ha: application rate 1000 g/Ha; for pest or weed control at 500 g/ha: application rate 500 g/Ha
Outline: as §1

Lolium perenne (LOLPE) = conditions: Lolium perenne, post-emergence, 312 h, evaluated after 13 days, read-out: Control of weed species LOLPE after post-emergence application (100=total damage to plant; 0=no damage to plant); for pest or weed control at 1000 g/ha: application rate 1000 g/Ha; for pest or weed control at 500 g/ha: application rate 500 g/Ha
Outline: as §1

O=S(=O)([O-])CC(O)C[n+]1ccc2ccccc2n1 (stereo not drawn) [Compound A28]
pest or weed control at 1000 g/ha [1]: 40%
pest or weed control at 1000 g/ha (Eleusine indica (ELEIN)): 80%
pest or weed control at 1000 g/ha [2]: 60%
pest or weed control at 1000 g/ha [3]: 60%
pest or weed control at 1000 g/ha [4]: 80%
pest or weed control at 1000 g/ha [5]: 70%
pest or weed control at 1000 g/ha (Setaria faberi (SETFA)): 50%
pest or weed control at 1000 g/ha [6]: 90%
pest or weed control at 1000 g/ha (Lolium perenne (LOLPE)): 60%

c1ccc2n[n+](Cc3nnn[n-]3)ccc2c1 [Compound A20]
pest or weed control at 1000 g/ha [1]: 20%
pest or weed control at 1000 g/ha (Eleusine indica (ELEIN)): 20%
pest or weed control at 1000 g/ha [2]: 20%
pest or weed control at 1000 g/ha [3]: 0%
pest or weed control at 1000 g/ha [4]: 70%
pest or weed control at 1000 g/ha [5]: 10%
pest or weed control at 1000 g/ha (Setaria faberi (SETFA)): 10%
pest or weed control at 1000 g/ha [6]: 30%
pest or weed control at 1000 g/ha (Lolium perenne (LOLPE)): 10%

Cc1ccc2n[n+](CCS(=O)(=O)[O-])ccc2c1 [Compound A32]
pest or weed control at 1000 g/ha [1]: 80%
pest or weed control at 1000 g/ha (Eleusine indica (ELEIN)): 90%
pest or weed control at 1000 g/ha [2]: 70%
pest or weed control at 1000 g/ha [3]: 70%
pest or weed control at 1000 g/ha [4]: 90%
pest or weed control at 1000 g/ha [5]: 90%
pest or weed control at 1000 g/ha (Setaria faberi (SETFA)): 60%
pest or weed control at 1000 g/ha [6]: 90%
pest or weed control at 1000 g/ha (Lolium perenne (LOLPE)): 30%

O=S(=O)(O)CC[n+]1ccc2ccc(-c3ccccc3)cc2n1 [Compound A78]
pest or weed control at 1000 g/ha [1]: 20%
pest or weed control at 1000 g/ha (Eleusine indica (ELEIN)): 70%
pest or weed control at 1000 g/ha [2]: 50%
pest or weed control at 1000 g/ha [3]: 10%
pest or weed control at 1000 g/ha [4]: 40%
pest or weed control at 1000 g/ha [5]: 0%
pest or weed control at 1000 g/ha (Setaria faberi (SETFA)): 30%
pest or weed control at 1000 g/ha [6]: 20%
pest or weed control at 1000 g/ha (Lolium perenne (LOLPE)): 0%

O=S(=O)([O-])CC[n+]1ccc2cc(C(F)(F)F)ccc2n1 [Compound A98]
pest or weed control at 500 g/ha [1]: 10%
pest or weed control at 500 g/ha (Eleusine indica (ELEIN)): 20%
pest or weed control at 500 g/ha [2]: 10%
pest or weed control at 500 g/ha [3]: 0%
pest or weed control at 500 g/ha [4]: 40%
pest or weed control at 500 g/ha [5]: 30%
pest or weed control at 500 g/ha (Setaria faberi (SETFA)): 0%
pest or weed control at 500 g/ha [6]: 0%
pest or weed control at 500 g/ha (Lolium perenne (LOLPE)): 10%

Cc1c[n+](CCS(=O)(=O)[O-])nc2ccccc12 [Compound A11]
pest or weed control at 1000 g/ha [1]: 60%
pest or weed control at 1000 g/ha (Eleusine indica (ELEIN)): 80%
pest or weed control at 1000 g/ha [2]: 40%
pest or weed control at 1000 g/ha [3]: 80%
pest or weed control at 1000 g/ha [4]: 80%
pest or weed control at 1000 g/ha [5]: 100%
pest or weed control at 1000 g/ha (Setaria faberi (SETFA)): 70%
pest or weed control at 1000 g/ha [6]: 100%
pest or weed control at 1000 g/ha (Lolium perenne (LOLPE)): 0%

CS(=O)(=O)[N-]C(=O)CCC[n+]1ccc2ccccc2n1 [Compound A30]
pest or weed control at 1000 g/ha [1]: 10%
pest or weed control at 1000 g/ha (Eleusine indica (ELEIN)): 20%
pest or weed control at 1000 g/ha [2]: 20%
pest or weed control at 1000 g/ha [3]: 10%
pest or weed control at 1000 g/ha [4]: 50%
pest or weed control at 1000 g/ha [5]: 60%
pest or weed control at 1000 g/ha (Setaria faberi (SETFA)): 20%
pest or weed control at 1000 g/ha [6]: 70%
pest or weed control at 1000 g/ha (Lolium perenne (LOLPE)): 10%

O=S(=O)([O-])CC[n+]1cc(-c2ccccc2)c2ccccc2n1 [Compound A51]
pest or weed control at 1000 g/ha [1]: 20%
pest or weed control at 1000 g/ha (Eleusine indica (ELEIN)): 30%
pest or weed control at 1000 g/ha [2]: 40%
pest or weed control at 1000 g/ha [3]: 30%
pest or weed control at 1000 g/ha [4]: 60%
pest or weed control at 1000 g/ha [5]: 30%
pest or weed control at 1000 g/ha (Setaria faberi (SETFA)): 30%
pest or weed control at 1000 g/ha [6]: 90%
pest or weed control at 1000 g/ha (Lolium perenne (LOLPE)): 10%

Cc1cc2ccccc2n[n+]1CCOS(=O)(=O)[O-] [Compound A75]
pest or weed control at 1000 g/ha [1]: 30%
pest or weed control at 1000 g/ha (Eleusine indica (ELEIN)): 80%
pest or weed control at 1000 g/ha [2]: 70%
pest or weed control at 1000 g/ha [3]: 30%
pest or weed control at 1000 g/ha [4]: 40%
pest or weed control at 1000 g/ha [5]: 90%
pest or weed control at 1000 g/ha (Setaria faberi (SETFA)): 30%
pest or weed control at 1000 g/ha [6]: 100%
pest or weed control at 1000 g/ha (Lolium perenne (LOLPE)): 20%

O=P(O)(O)CCC[n+]1ccc2ccccc2n1 [Compound A70]
pest or weed control at 1000 g/ha [1]: 40%
pest or weed control at 1000 g/ha (Eleusine indica (ELEIN)): 90%
pest or weed control at 1000 g/ha [2]: 80%
pest or weed control at 1000 g/ha [3]: 100%
pest or weed control at 1000 g/ha [4]: 80%
pest or weed control at 1000 g/ha [5]: 90%
pest or weed control at 1000 g/ha (Setaria faberi (SETFA)): 60%
pest or weed control at 1000 g/ha [6]: 80%
pest or weed control at 1000 g/ha (Lolium perenne (LOLPE)): 40%

O=S(=O)([O-])C[n+]1ccc2ccccc2n1 [Compound A48, cinnolin-2-ium-2-ylmethanesulfonate]
pest or weed control at 1000 g/ha [1]: 40%
pest or weed control at 1000 g/ha (Eleusine indica (ELEIN)): 90%
pest or weed control at 1000 g/ha [2]: 60%
pest or weed control at 1000 g/ha [3]: 100%
pest or weed control at 1000 g/ha [4]: 100%
pest or weed control at 1000 g/ha [5]: 80%
pest or weed control at 1000 g/ha (Setaria faberi (SETFA)): 70%
pest or weed control at 1000 g/ha [6]: 100%
pest or weed control at 1000 g/ha (Lolium perenne (LOLPE)): 70%

COC(=O)C(C)[n+]1ccc2ccccc2n1 (stereo not drawn) [Compound A120]
pest or weed control at 500 g/ha [1]: 30%
pest or weed control at 500 g/ha (Eleusine indica (ELEIN)): 60%
pest or weed control at 500 g/ha [2]: 50%
pest or weed control at 500 g/ha [3]: 20%
pest or weed control at 500 g/ha [4]: 60%
pest or weed control at 500 g/ha [5]: 90%
pest or weed control at 500 g/ha (Setaria faberi (SETFA)): 50%
pest or weed control at 500 g/ha [6]: 100%
pest or weed control at 500 g/ha (Lolium perenne (LOLPE)): 0%

O=S(=O)([O-])CC[n+]1ccc2cc(F)ccc2n1 [Compound A82]
pest or weed control at 1000 g/ha [1]: 20%
pest or weed control at 1000 g/ha (Eleusine indica (ELEIN)): 60%
pest or weed control at 1000 g/ha [2]: 40%
pest or weed control at 1000 g/ha [3]: 40%
pest or weed control at 1000 g/ha [4]: 60%
pest or weed control at 1000 g/ha [5]: 70%
pest or weed control at 1000 g/ha (Setaria faberi (SETFA)): 30%
pest or weed control at 1000 g/ha [6]: 90%
pest or weed control at 1000 g/ha (Lolium perenne (LOLPE)): 30%

Cc1cccc2cc[n+](CC(=O)O)nc12 [Compound A59]
pest or weed control at 1000 g/ha [1]: 20%
pest or weed control at 1000 g/ha (Eleusine indica (ELEIN)): 10%
pest or weed control at 1000 g/ha [2]: 20%
pest or weed control at 1000 g/ha [3]: 10%
pest or weed control at 1000 g/ha [4]: 20%
pest or weed control at 1000 g/ha [5]: 60%
pest or weed control at 1000 g/ha (Setaria faberi (SETFA)): 20%
pest or weed control at 1000 g/ha [6]: 30%
pest or weed control at 1000 g/ha (Lolium perenne (LOLPE)): 10%

O=S(=O)([O-])CC[n+]1ccc2cc(Cl)ccc2n1 [Compound A88]
pest or weed control at 1000 g/ha [1]: 20%
pest or weed control at 1000 g/ha (Eleusine indica (ELEIN)): 50%
pest or weed control at 1000 g/ha [2]: 50%
pest or weed control at 1000 g/ha [3]: 20%
pest or weed control at 1000 g/ha [4]: 60%
pest or weed control at 1000 g/ha [5]: 40%
pest or weed control at 1000 g/ha (Setaria faberi (SETFA)): 40%
pest or weed control at 1000 g/ha [6]: 70%
pest or weed control at 1000 g/ha (Lolium perenne (LOLPE)): 30%

O=S(=O)([O-])CC[n+]1ccc2cc(-c3ccccc3)ccc2n1 [Compound A53]
pest or weed control at 500 g/ha [1]: 0%
pest or weed control at 500 g/ha (Eleusine indica (ELEIN)): 40%
pest or weed control at 500 g/ha [2]: 10%
pest or weed control at 500 g/ha [3]: 10%
pest or weed control at 500 g/ha [4]: 20%
pest or weed control at 500 g/ha [5]: 0%
pest or weed control at 500 g/ha (Setaria faberi (SETFA)): 10%
pest or weed control at 500 g/ha [6]: 20%
pest or weed control at 500 g/ha (Lolium perenne (LOLPE)): 0%
